Molecules are shown by their SMILES.

The term ΔTm denotes the shift of the melting midpoint relative to a reference. Broadly, the Kd is the constant that tells how readily two partners part at equilibrium.

One experiment concerns the target T1, KMT5A (Homo sapiens, UniProt Q9NQR1).
T1 sequence (Q9NQR1 1-393): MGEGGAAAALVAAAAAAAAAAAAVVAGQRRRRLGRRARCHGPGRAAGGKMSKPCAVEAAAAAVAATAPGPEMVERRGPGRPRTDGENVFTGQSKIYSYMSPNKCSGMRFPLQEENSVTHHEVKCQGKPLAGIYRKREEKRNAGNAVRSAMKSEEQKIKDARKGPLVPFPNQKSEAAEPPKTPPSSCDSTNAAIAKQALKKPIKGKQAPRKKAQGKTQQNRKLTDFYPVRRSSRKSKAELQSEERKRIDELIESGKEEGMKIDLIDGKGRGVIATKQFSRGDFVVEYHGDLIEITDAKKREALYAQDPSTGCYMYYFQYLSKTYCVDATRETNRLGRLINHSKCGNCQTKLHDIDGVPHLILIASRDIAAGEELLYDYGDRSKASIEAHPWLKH
Put plainly: CETSA in HepG2 cells, KMT5A. The class given is cell-based. Also noted: KMT5A upon treatment with compound 8 compared to DMSO; endogenous in cells; host or cells: HepG2. How it is done:
(§1) For whole cell CETSA, the cells were incubated with 10/15 μM of compound 7b/8/8-N for 18 h. Then, cells were washed with cell culture medium, detached from the surface using trypsin, washed with PBS and the number of cells was determined. Cell concentration was adjusted to 3.6 × 10^7 cells/mL using in PBS with Complete (w/o EDTA, Roche) protease inhibitor. Then, cells were frozen in liquid nitrogen and thawed at 25 °C three times, before being divided in 16 aliquots. Each aliquot was heated to a defined temperature between 40 and 70 °C in a PCR cycler (16 well gradient, 55 °C ± 15). After 3 min incubation, aliquots were snap frozen in liquid nitrogen and thawed at 25 °C. Cell lysates were then centrifuged at 20,000 × g , 4 °C for 20 min. Supernatant were mixed with 5× loading buffer, heated to 70 °C for 5 min and analyzed by Western blotting essentially as previously described. For the CETSA performed with cell lysates, cells were directly harvested and lysed as described above. […]
Figure S5. […] Representative Western blots (D) and quantification (E) showing increased melting temperatures (ΔT m) of endogenous KMT9a upon treatment with compound 8 compared to DMSO. […] Representative Western blots (F) and quantification (G) showing no obvious shifting melting temperatures (ΔT m) of endogenous KMT5A upon treatment with compound 8 compared to DMSO. […]

The subject of another experiment is HepG2 cells. Put plainly: Cell proliferation assay, HepG2. Type of experiment: cell-based, human. The settings on record: vs DMSO.
A further experiment addresses T2, KMT9a (Homo sapiens, UniProt Q9Y5N5).
T2 sequence (Q9Y5N5 1-214): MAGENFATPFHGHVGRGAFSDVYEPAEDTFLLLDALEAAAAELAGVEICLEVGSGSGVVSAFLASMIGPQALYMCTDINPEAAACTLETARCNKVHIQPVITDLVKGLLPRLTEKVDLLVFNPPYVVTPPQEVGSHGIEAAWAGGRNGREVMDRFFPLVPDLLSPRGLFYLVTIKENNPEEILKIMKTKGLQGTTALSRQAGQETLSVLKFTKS
T2 sequence (Q9UI30 1-125 partner): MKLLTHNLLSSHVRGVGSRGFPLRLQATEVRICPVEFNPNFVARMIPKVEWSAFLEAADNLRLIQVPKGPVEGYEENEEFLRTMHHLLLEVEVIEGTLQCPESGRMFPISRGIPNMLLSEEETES
Description: CETSA in Caco-2 cells, KMT9. Type of experiment: cell-based. Set-up: of endogenous KMT9 upon treatment with; endogenous in cells; host or cells: Caco-2. How it is done: as §1
Figure S4. […] Representative Western blots (A) and quantification (B) showing no obvious shifting melting temperatures (ΔT m) of endogenous KMT5A upon treatment with compound 7b compared to DMSO. […]
Representative Western blots (C) and quantification (D) showing no shifting melting temperatures (ΔT m) of endogenous KMT5A upon treatment with compound 8 compared to DMSO. […]

A further experiment deals with T3, endogenous KMT9a (Homo sapiens, UniProt Q9Y5N5).
T3 construct: increased thermal stability of endogenous KMT9 in SW480 cell lysates; endogenous in cells; host or cells: SW480
T3 sequence (Q9Y5N5 1-214): T2 sequence (Q9Y5N5 1-214)
T3 sequence (Q9UI30 1-125 partner): T2 sequence (Q9UI30 1-125 partner)
Description: CETSA in intact SW480 cells, KMT9. The class given is cell-based. The settings on record: 18 h, vs DMSO. How it is done:
For whole cell CETSA, the cells were incubated with 10/15 μM of compound 7b/8/8-N for 18 h. Then, cells were washed with cell culture medium, detached from the surface using trypsin, washed with PBS and the number of cells was determined. Cell concentration was adjusted to 3.6 × 10^7 cells/mL using in PBS with Complete (w/o EDTA, Roche) protease inhibitor. Then, cells were frozen in liquid nitrogen and thawed at 25 °C three times, before being divided in 16 aliquots. Each aliquot was heated to a defined temperature between 40 and 70 °C in a PCR cycler (16 well gradient, 55 °C ± 15). After 3 min incubation, aliquots were snap frozen in liquid nitrogen and thawed at 25 °C. Cell lysates were then centrifuged at 20,000 × g , 4 °C for 20 min. Supernatant were mixed with 5× loading buffer, heated to 70 °C for 5 min and analyzed by Western blotting essentially as previously described. For the CETSA performed with cell lysates, cells were directly harvested and lysed as described above. The lysates were then split and incubated either with DMSO or 10 μM compound 7b for 2 h. Then, lysates were aliquoted again into 16 samples each and treated as described for the whole cell CETSA.

A further experiment addresses T4, KMT9 (Homo sapiens, UniProt Q9Y5N5).
T4 sequence (Q9Y5N5 1-214): T2 sequence (Q9Y5N5 1-214)
T4 sequence (Q9UI30 1-125 partner): T2 sequence (Q9UI30 1-125 partner)
Put plainly: Microscale thermophoresis (MST) binding assay. How it is done: To determine the binding affinity of the compound and KMT9, microscale thermophoresis (MST) analysis was performed with a NanoTemper Monolith NT.115 instrument (NanoTemper Technologies GmbH). KMT9 was labeled with a RED-Tris-NTA labeling kit (NanoTemper Technologies GmbH) based on the manufacturer’s instructions. Buffer including 25 mM HEPES (pH 7.5), 100 mM NaCl, 1 mM DTT and 0.05% Tween was used for the reaction buffer. Varying concentrations of compounds were titrated against His-tag labeled KMT9 proteins (20 nM). Samples were loaded into standard Capillaries (NanoTemper Technologies GmbH) and MST measurements were performed using 40% MST power and 100% LED power. For each set of binding experiments, MST measurement was carried out with Binding Affinity module in MO. Control program under Nano-RED excitation. Data sets were processed with the MO.Affinity Analysis software (NanoTemper Technologies GmbH).
On the technique in general: Microscale thermophoresis detects binding through changes in fluorescence in a small temperature gradient.

Consider `CCOC(=O)[C@@H](N)CCN(CCCNCCc1ccc(Oc2ccc(Cl)cc2)c(F)c1)C[C@H]1C[C@@H](n2ccc3c(NC)ncnc32)[C@H](O)[C@@H]1O` [compound 8, Ethyl (S)-2-amino-4-((3-((4-(4-chlorophenoxy)-3-fluorophenethyl)amino)propyl) (((1R,2R,3S,4R)-2,3-dihydroxy-4-(4-(methylamino)-7H-pyrrolo[2,3-d]pyrimidin-7-yl)cyclopentyl)methyl)amino)butanoate], for which the ΔTm at 15 µM at KMT5A came out at 0.1 °C; at KMT9a it was 6.1 °C. Besides, the “Proliferation of HepG2 cells” value with HepG2 cells was “did not affect cell proliferation”. Moreover, the ΔTm at 10 µM at endogenous KMT9a came out at 5 °C. Besides, at KMT9 (Kd ratio vs compound 7b), the “Decrease of binding affinity compared to compound 7b” value is “more than 10,000 fold”. The Kd at KMT9 (MST, binding to KMT9, read-out: Kd) was above 400 µM.

The values are drawn from paper PMC12257510, “Structure-Guided Design of a KMT9 Inhibitor Prodrug with Cellular Activity” (Journal of Medicinal Chemistry, 2025).
